≈ marks a conversion by molar mass, not a printed value.
How the values were obtained:
[1] = mouse microsomes; cited from earlier work
[2] = human microsomes; cited from earlier work
[3] = in vitro; conditions: for microsomal CLint / microsomal CLint at 1 μg/ml: microsomes, pH 7.4
Protocol: The intrinsic clearance (CLint) of compounds was measured in both mouse and human liver microsomes. Briefly, 100 μg of mouse (CD-1) or human liver microsomes (both from Invitrogen) were mixed in 0.1 M phosphate buffer (pH 7.4) containing 0.01 μl of compound dissolved in dimethyl sulfoxide (DMSO) at 10 mg/ml in a final volume of 50 μl. In parallel, an NADPH-regenerating system (Promega) was prepared in 0.1 M phosphate buffer (pH 7.4). […] After 0, 5, 15, 30, and 60 min, the reactions were terminated by transferring […] into 100 μl of acetonitrile and placing the mixture on ice for 30 min for full protein precipitation. […] After 0 and 60 min, the reactions were terminated, prepared and analyzed as previously described.

[4] = test system: M. tuberculosis H37Rv; test: microbe, parasite or virus in culture; type: cell-based; conditions: Mycobacterium tuberculosis, H37RV; REMA, 7H9 broth, 6 days + 24 h resazurin; read-out: MIC99 H37Rv
[5] = Water solubility, shake flask method; type: physicochemical
Protocol: Water solubility measurements were performed using the shake flask method ([28]). Approximately 1 ml of water was added to 1 mg of compound in an Eppendorf tube, followed by incubation for 3 days at 25°C with shaking at 800 rpm. Suspensions were centrifuged at 16,100 × g for 10 min, and the supernatant was filtered using 0.22-μm-pore size filters. Filtrates were injected onto a high-performance liquid chromatography (HPLC) column (Dionex), and the amount of compound was quantified using a calibration curve.

[6] = test system: M. tuberculosis H37Rv; test: Murine model of chronic TB; type: in vivo, Mycobacterium tuberculosis; conditions: BALB/cByJ mice, 25 mg/kg by gavage 5 days a week for 4 weeks
[7] = test system: HepG2 cells; conditions: for TD50: 3 days
[8] = test system: M. tuberculosis H37Rv; design: method as in PMID 24500695; conditions: ref [5]; cited from earlier work

C[C@H]1COC2(CCN(c3nc(=O)c4cc(C(F)(F)F)cc([N+](=O)[O-])c4s3)CC2)O1 [BTZ043]
CLint mouse microsome [1]: 16.5 μl/min/mg protein | CLint human microsome [2]: 4.20 μl/min/mg protein

NC(=O)N1c2ccccc2C=Cc2ccccc21 [Carbamazepine, reference compound]
microsomal CLint ([3]; CD-1, mouse): 0.6 µL/min/mg | microsomal CLint ([3]; human): 0.4 µL/min/mg

O=c1nc(N2CCN(CC3CCCCC3)CC2)sc2c([N+](=O)[O-])cc(C(F)(F)F)cc12 [PBTZ169, macozinone, reference compound]
MIC [4]: 0.0002 µg/mL | Times more soluble in water than calculated [5]: 400 times | Bacterial burden in lungs lower than untreated control [6]: 1.03 log10 CFU | Bacterial burden in spleens lower than untreated control [6]: 1.47 log10 CFU | TD50 ([7]; HepG2 cells): 44.00 µg/mL | MIC against M. tuberculosis [8]: 0.3 nM (≈ 0.137 ng/mL) | CLint mouse microsome [1]: 36.7 μl/min/mg protein | CLint human microsome [2]: 28 μl/min/mg protein

CO[C@H]1/C=C/O[C@@]2(C)Oc3c(C)c(O)c4c(O)c(c(/C=N/N5CCN(C)CC5)c(O)c4c3C2=O)NC(=O)/C(C)=C\C=C\[C@H](C)[C@H](O)[C@@H](C)[C@@H](O)[C@@H](C)[C@H](OC(C)=O)[C@@H]1C [Rifampin, reference compound]
MIC [4]: 0.0008 µg/mL | TD50 ([7]; HepG2 cells): 100.00 µg/mL

Cc1noc(C)c1S(=O)(=O)N1CCN(c2nc(=O)c3cc(C(F)(F)F)cc([N+](=O)[O-])c3s2)CC1 [compound 11326056]
MIC [4]: 0.06 µg/mL | melting point: 265 to 267 °C

CCn1cc(S(=O)(=O)N2CCN(c3nc(=O)c4cc(C(F)(F)F)cc([N+](=O)[O-])c4s3)CC2)c(C)n1 [compound 11326058]
MIC [4]: 0.4 µg/mL | melting point: 218 to 220 °C

O=c1nc(N2CCN(S(=O)(=O)c3cccs3)CC2)sc2c([N+](=O)[O-])cc(C(F)(F)F)cc12 [compound 11326059]
MIC [4]: 0.004 µg/mL | Times less soluble in water than 11626095, 11626092 and 11626091 [5]: at least 100 times | solubility at 3 days ([5]; 25 °C, water, thermodynamic from solid): < 0.01 µg/mL | microsomal CLint at 1 μg/ml ([3]; CD-1, mouse): 18.6 µL/min/mg | Microsomal stability / clearance (in words), human ([3]; human microsomes): medium clearances | microsomal CLint at 1 μg/ml ([3]; human): 16.8 µL/min/mg | Microsomal stability / clearance (in words), mouse ([3]; mouse microsomes): medium clearances | melting point: 210 to 214 °C | Cytotoxicity (in words) ([7]; HepG2 cells): not cytotoxic | TD50 ([7]; HepG2 cells): 100 µg/mL | Selective index ([7]; ratio TD50 (HepG2) to MIC99 (H37Rv)): 25,000

Cc1nn(C)cc1S(=O)(=O)N1CCN(c2nc(=O)c3cc(C(F)(F)F)cc([N+](=O)[O-])c3s2)CC1 [compound 11326061]
MIC [4]: 0.4 µg/mL | melting point: 200 to 203 °C

CC(=O)c1ccc(S(=O)(=O)N2CCN(c3nc(=O)c4cc(C(F)(F)F)cc([N+](=O)[O-])c4s3)CC2)cc1 [compound 11326119]
MIC [4]: 50 µg/mL | melting point: 280 to 282 °C

O=c1nc(N2CCN(S(=O)(=O)c3ccc(OC(F)(F)F)cc3)CC2)sc2c([N+](=O)[O-])cc(C(F)(F)F)cc12 [compound 11326120]
MIC [4]: 0.1 µg/mL

O=c1nc(N2CCN(S(=O)(=O)c3ccc(Cl)s3)CC2)sc2c([N+](=O)[O-])cc(C(F)(F)F)cc12 [compound 11326121]
MIC [4]: 0.03 µg/mL | melting point: 210 to 213 °C
